# ChEMBL document CHEMBL4507279, “Data for DCP probe BI-9627” (2021)
# Calls of active or inactive are those of the source. No cut-off for these calls is given here.
# What was measured:
# [1] = biological target: Sodium/hydrogen exchanger 1 (Homo sapiens, UniProt P19634); experiment: pHi change assay with SLC9A1
# [2] = biological target: MAP/microtubule affinity-regulating kinase 3 (Homo sapiens) (UniProt P27448); conditions: Compound concentration 1000.0 nM
# [3] = system: Proto-oncogene tyrosine-protein kinase receptor Ret (Homo sapiens), P07949 [M918T]; conditions: Compound concentration 1000.0 nM
# [4] = biological target: D(3) dopamine receptor (Homo sapiens) (UniProt P35462); conditions: Compound concentration 10.0 uM
# D(3) dopamine receptor (Homo sapiens), sequence (P35462 whole entry): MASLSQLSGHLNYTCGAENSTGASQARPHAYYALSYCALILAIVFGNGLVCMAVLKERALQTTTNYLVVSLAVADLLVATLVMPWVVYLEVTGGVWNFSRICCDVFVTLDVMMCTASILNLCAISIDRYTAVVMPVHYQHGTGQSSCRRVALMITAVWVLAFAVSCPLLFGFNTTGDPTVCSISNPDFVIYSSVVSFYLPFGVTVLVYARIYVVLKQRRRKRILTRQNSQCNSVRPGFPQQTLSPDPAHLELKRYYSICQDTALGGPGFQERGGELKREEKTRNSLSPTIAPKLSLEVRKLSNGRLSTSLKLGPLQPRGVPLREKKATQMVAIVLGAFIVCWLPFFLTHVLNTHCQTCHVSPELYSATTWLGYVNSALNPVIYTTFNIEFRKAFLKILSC
# [5] = biological target: T1, 5-hydroxytryptamine receptor 3A (Homo sapiens) (UniProt P46098); experiment: 5HT3/HU Eurofins-Panlabs selectivity data (BI); conditions: Compound concentration 10.0 uM
# T1 sequence (whole entry): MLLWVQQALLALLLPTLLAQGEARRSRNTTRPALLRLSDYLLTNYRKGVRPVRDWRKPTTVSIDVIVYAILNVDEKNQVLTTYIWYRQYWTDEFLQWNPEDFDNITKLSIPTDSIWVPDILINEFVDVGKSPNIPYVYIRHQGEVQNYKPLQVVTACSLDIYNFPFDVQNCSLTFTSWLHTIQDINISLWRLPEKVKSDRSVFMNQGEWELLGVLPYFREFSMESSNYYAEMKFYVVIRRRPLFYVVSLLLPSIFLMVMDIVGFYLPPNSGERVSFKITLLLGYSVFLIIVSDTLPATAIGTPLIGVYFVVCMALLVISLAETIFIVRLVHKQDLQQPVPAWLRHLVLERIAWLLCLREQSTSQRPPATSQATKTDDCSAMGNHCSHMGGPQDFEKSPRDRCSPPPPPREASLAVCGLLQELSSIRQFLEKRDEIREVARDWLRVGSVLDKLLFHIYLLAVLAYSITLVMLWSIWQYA
# [6] = biological target: Adenosine receptor A3 (Homo sapiens) (UniProt P0DMS8); experiment: A3/H Eurofins-Panlabs selectivity data (BI); conditions: Compound concentration 10.0 uM
# [7] = biological target: T2, Alpha-1A adrenergic receptor (Homo sapiens) (UniProt P35348); experiment: ALPHA1A/R Eurofins-Panlabs selectivity data (BI); conditions: Rattus norvegicus; Compound concentration 10.0 uM
# T2 sequence (whole entry): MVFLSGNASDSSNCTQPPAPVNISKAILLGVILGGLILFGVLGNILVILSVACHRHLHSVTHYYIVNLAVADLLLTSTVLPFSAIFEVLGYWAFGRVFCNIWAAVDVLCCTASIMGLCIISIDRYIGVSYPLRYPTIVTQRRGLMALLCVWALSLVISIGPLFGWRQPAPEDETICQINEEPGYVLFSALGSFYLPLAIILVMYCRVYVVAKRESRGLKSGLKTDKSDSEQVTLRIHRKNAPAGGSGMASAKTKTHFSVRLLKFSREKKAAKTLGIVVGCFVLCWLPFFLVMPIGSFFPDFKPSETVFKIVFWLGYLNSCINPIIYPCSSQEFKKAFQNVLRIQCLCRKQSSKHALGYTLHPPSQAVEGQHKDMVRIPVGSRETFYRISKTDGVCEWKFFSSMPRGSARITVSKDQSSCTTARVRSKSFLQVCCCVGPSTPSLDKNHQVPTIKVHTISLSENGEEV
# [8] = biological target: Alpha-1B adrenergic receptor (Homo sapiens) (UniProt P35368); experiment: ALPHA1B/R Eurofins-Panlabs selectivity data (BI); conditions: Rattus norvegicus; Compound concentration 10.0 uM
# [9] = biological target: B2 bradykinin receptor (Homo sapiens) (UniProt P30411); experiment: B2/HU Eurofins-Panlabs selectivity data (BI); conditions: Compound concentration 10.0 uM
# B2 bradykinin receptor (Homo sapiens), sequence (P30411 whole entry): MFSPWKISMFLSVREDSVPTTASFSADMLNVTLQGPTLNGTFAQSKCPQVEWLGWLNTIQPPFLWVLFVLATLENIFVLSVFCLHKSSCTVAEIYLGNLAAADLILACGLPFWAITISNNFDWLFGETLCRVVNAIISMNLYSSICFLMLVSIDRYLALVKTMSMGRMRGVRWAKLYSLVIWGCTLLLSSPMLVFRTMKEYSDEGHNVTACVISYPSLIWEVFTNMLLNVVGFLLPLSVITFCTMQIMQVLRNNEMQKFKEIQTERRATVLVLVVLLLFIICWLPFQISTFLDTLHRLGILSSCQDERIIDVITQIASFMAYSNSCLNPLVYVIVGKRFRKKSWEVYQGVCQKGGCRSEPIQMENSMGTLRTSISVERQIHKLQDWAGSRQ
# [10] = biological target: Beta-2 adrenergic receptor (Homo sapiens) (UniProt P07550); experiment: BETA2/HU Eurofins-Panlabs selectivity data (BI); conditions: Compound concentration 10.0 uM
# Beta-2 adrenergic receptor (Homo sapiens), sequence (P07550 whole entry, looked up): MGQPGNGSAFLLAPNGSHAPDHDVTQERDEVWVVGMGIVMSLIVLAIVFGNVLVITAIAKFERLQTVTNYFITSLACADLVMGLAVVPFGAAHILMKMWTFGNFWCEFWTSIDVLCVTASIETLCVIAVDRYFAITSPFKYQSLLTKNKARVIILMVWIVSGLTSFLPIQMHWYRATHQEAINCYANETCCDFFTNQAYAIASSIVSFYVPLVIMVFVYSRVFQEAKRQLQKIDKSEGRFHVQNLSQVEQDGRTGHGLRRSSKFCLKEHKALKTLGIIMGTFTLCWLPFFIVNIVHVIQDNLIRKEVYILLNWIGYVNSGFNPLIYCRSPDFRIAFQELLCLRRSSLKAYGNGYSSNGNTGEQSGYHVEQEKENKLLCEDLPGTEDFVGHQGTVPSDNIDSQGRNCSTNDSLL
# [11] = biological target: Voltage-dependent L-type calcium channel subunit alpha-1C (diltiazem site) (Rattus norvegicus, UniProt P22002); experiment: CA+/DILSI/RA Eurofins-Panlabs selectivity data (BI); conditions: compound concentration 10 uM, read-out: % Ctrl
# [12] = biological target: Estrogen receptor (Homo sapiens) (UniProt P03372); experiment: ERALPHA/H Eurofins-Panlabs selectivity data (BI); conditions: Compound concentration 10.0 uM
# [13] = biological target: Endothelin receptor type B (Homo sapiens) (UniProt P24530); experiment: ETB/HUM Eurofins-Panlabs selectivity data (BI); conditions: Compound concentration 10.0 uM
# Endothelin receptor type B (Homo sapiens), sequence (P24530 whole entry): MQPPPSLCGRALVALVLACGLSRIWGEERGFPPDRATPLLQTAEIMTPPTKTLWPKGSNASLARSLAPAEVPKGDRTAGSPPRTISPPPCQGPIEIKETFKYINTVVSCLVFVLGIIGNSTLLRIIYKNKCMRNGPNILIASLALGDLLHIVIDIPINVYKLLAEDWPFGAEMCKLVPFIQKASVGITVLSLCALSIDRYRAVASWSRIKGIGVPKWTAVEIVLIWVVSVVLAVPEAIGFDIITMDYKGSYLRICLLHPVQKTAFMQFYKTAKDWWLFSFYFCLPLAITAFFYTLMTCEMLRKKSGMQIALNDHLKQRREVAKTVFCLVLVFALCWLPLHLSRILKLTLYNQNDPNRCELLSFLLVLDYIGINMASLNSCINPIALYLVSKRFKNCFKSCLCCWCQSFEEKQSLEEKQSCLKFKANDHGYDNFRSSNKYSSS
# [14] = biological target: Gamma-aminobutyric acid receptor subunit alpha-1 (Rattus norvegicus) (UniProt P62813); experiment: GABAACENTR Eurofins-Panlabs selectivity data (BI); conditions: Compound concentration 10.0 uM
# [15] = biological target: Gamma-aminobutyric acid type B receptor subunit 1 (Homo sapiens) (UniProt Q9UBS5); experiment: GABA_B1A Eurofins-Panlabs selectivity data (BI); conditions: Compound concentration 10.0 uM
# [16] = biological target: Glucocorticoid receptor (Homo sapiens) (UniProt P04150); experiment: GLUCOCORTICO Eurofins-Panlabs selectivity data (BI); conditions: Compound concentration 10.0 uM
# Glucocorticoid receptor (Homo sapiens), sequence (P04150 whole entry): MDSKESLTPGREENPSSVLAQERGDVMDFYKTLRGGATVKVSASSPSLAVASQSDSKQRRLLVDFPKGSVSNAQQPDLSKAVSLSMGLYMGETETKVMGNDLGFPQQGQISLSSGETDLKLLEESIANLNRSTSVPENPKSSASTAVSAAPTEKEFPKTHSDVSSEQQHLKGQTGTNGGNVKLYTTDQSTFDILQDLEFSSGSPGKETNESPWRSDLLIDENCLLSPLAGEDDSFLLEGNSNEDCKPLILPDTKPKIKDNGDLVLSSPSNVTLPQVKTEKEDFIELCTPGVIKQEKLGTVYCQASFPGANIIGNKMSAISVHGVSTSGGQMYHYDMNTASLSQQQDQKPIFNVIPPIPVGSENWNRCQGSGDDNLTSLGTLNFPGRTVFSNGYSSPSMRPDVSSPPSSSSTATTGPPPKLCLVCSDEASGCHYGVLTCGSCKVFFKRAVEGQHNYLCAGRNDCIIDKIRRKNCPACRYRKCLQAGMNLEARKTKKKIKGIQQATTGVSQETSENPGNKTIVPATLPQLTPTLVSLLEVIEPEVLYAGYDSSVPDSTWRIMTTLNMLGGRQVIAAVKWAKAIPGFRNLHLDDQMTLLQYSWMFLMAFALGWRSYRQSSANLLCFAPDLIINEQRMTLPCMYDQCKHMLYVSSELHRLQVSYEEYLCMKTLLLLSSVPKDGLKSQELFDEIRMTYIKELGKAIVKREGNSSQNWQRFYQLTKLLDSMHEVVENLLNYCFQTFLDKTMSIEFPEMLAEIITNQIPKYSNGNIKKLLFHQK
# [17] = biological target: Histamine H1 receptor (Homo sapiens) (UniProt P35367); experiment: H1/H Eurofins-Panlabs selectivity data (BI); conditions: Compound concentration 10.0 uM
# [18] = biological target: Histamine H2 receptor (Homo sapiens) (UniProt P25021); experiment: H2/H Eurofins-Panlabs selectivity data (BI); conditions: Compound concentration 10.0 uM
# [19] = biological target: Histamine H3 receptor (Homo sapiens) (UniProt Q9Y5N1); experiment: H3/H Eurofins-Panlabs selectivity data (BI); conditions: Compound concentration 10.0 uM
# Histamine H3 receptor (Homo sapiens), sequence (Q9Y5N1 whole entry): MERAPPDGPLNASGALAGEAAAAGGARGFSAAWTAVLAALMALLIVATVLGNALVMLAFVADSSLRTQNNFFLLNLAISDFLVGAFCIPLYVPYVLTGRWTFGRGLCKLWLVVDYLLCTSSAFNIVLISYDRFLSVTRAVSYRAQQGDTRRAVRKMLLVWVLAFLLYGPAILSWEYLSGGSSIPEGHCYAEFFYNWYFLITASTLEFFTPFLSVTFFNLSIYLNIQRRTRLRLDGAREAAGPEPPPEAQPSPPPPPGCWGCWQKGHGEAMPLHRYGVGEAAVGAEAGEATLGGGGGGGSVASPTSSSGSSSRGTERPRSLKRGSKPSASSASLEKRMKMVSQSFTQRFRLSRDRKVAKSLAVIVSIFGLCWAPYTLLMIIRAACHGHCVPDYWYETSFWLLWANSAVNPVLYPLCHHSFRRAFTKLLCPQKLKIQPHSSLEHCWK
# [20] = biological target: Kappa-type opioid receptor (Homo sapiens) (UniProt P41145); experiment: KAPPA/HU Eurofins-Panlabs selectivity data (BI); conditions: Compound concentration 10.0 uM
# Kappa-type opioid receptor (Homo sapiens), sequence (P41145 whole entry): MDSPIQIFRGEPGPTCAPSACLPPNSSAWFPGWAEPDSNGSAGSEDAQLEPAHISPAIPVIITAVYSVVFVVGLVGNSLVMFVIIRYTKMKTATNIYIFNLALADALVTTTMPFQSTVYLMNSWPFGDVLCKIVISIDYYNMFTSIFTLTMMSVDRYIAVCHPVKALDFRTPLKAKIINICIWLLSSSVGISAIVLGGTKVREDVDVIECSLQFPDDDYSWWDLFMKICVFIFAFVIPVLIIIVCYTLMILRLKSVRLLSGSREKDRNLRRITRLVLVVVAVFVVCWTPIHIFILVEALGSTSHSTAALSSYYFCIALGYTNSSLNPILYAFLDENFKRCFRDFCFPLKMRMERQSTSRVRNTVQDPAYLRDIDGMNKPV
# [21] = biological target: T3, Sodium channel alpha subunit (site 2) (Homo sapiens, UniProt P35498+P35499+Q01118+Q14524+Q15858+Q99250+Q9NY46+Q9UI33+Q9UQD0+Q9Y5Y9); experiment: NA+/SITE2AG Eurofins-Panlabs selectivity data (BI); assay type: protein assay, Cavia porcellus; set-up: mode of action antagonist; conditions: guinea pig; compound concentration 30 uM; read-out: % Ctrl
# [22] = biological target: T3, Sodium channel alpha subunit (site 2); experiment: NA+/SITE2ATG Eurofins-Panlabs selectivity data (BI); assay type: protein assay, Cavia porcellus; set-up: mode of action antagonist; conditions: guinea pig; compound concentration 30 uM; read-out: % Ctrl
# [23] = biological target: Sodium-dependent noradrenaline transporter (Homo sapiens) (UniProt P23975); experiment: NETRANS/H Eurofins-Panlabs selectivity data (BI); conditions: Compound concentration 10.0 uM
# [24] = biological target: Glutamate receptor ionotropic, NMDA 1 (Rattus norvegicus) (UniProt P35439); experiment: NMDAGLSI/RA Eurofins-Panlabs selectivity data (BI); conditions: Compound concentration 10.0 uM
# [25] = biological target: Protein kinase C alpha type (Mus musculus) (UniProt P20444); experiment: PHORBOLE/M Eurofins-Panlabs selectivity data (BI); conditions: Compound concentration 10.0 uM
# [26] = biological target: Neuropeptide Y receptor type 1 (Homo sapiens) (UniProt P25929); experiment: Y1/HU Eurofins-Panlabs selectivity data (BI); conditions: Compound concentration 10.0 uM
# [27] = biological target: 5-hydroxytryptamine receptor 1A (Homo sapiens) (UniProt P08908); conditions: Compound concentration 10.0 uM
# 5-hydroxytryptamine receptor 1A (Homo sapiens), sequence (P08908 whole entry): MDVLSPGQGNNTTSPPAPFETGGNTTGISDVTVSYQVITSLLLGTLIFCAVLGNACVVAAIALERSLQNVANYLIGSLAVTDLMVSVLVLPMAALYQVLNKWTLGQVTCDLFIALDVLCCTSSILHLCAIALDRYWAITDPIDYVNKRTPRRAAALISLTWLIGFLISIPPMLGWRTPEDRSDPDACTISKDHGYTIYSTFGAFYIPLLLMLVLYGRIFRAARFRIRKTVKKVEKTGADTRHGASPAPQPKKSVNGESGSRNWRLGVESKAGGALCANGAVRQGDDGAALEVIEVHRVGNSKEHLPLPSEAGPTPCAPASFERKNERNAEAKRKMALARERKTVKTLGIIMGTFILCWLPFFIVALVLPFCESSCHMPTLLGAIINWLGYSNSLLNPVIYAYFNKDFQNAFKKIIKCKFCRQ
# [28] = biological target: 5-hydroxytryptamine receptor 5A (Homo sapiens) (UniProt P47898); conditions: Compound concentration 10.0 uM
# 5-hydroxytryptamine receptor 5A (Homo sapiens), sequence (P47898 whole entry): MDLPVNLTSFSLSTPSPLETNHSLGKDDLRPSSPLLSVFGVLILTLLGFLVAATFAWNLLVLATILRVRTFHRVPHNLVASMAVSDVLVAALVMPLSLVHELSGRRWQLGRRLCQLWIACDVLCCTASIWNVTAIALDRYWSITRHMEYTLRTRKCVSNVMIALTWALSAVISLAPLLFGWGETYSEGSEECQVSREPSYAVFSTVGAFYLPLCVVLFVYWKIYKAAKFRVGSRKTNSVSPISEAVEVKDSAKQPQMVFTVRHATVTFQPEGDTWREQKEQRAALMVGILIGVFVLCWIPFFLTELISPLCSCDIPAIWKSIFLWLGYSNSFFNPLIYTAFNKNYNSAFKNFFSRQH
# [29] = biological target: Kappa-type opioid receptor (Homo sapiens) (UniProt P41145); conditions: Compound concentration 10.0 uM
# [30] = biological target: Muscarinic acetylcholine receptor M3 (Homo sapiens) (UniProt P20309); conditions: Compound concentration 10.0 uM
# [31] = biological target: Melatonin receptor type 1A (Homo sapiens) (UniProt P48039); conditions: Compound concentration 10.0 uM
# [32] = Rat platelet swelling inhibition (rPSA) assay
# Sodium/hydrogen exchanger 1, sequence (P19634 whole entry): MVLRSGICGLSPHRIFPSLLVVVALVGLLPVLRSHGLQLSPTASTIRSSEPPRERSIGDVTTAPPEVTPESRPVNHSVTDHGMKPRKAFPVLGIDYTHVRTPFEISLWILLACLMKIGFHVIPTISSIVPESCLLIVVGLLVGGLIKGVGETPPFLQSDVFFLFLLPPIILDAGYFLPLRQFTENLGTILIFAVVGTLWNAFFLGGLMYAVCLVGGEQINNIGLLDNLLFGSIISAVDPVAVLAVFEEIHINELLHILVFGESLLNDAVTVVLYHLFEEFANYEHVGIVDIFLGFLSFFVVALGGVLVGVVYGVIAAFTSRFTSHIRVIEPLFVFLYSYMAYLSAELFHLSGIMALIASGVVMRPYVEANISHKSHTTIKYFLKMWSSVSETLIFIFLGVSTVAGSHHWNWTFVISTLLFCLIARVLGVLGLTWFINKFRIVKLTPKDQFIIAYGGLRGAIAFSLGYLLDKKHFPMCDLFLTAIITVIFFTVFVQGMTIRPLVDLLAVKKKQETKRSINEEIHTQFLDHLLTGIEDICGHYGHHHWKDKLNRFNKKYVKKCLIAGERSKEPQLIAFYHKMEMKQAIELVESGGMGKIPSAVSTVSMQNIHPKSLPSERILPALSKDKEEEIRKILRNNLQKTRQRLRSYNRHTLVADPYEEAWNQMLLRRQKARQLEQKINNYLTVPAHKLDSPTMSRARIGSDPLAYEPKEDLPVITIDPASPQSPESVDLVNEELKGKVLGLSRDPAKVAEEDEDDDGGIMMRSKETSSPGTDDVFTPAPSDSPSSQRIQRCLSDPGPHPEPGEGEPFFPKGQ
smiles,measurement,setting,value
CC(=O)N1CCC(c2ccc(C(=O)NC3=NCCN3)cc2C(F)(F)F)CC1 [BI 0054],IC50,[1],> 10 µM (not active)
same,residual activity,[2],100%
same,residual activity,[3],90%
same,inhibition,[4],-7.75%
CC(=O)N1CCC(c2ccc(C(=O)NC(=N)N)cc2C(F)(F)F)CC1 [BI 9627],residual activity,[5],98%
same,residual activity,[6],105%
same,residual activity,[7],86%
same,residual activity,[8],95%
same,residual activity,[9],105%
same,residual activity,[10],102%
same,activity at 10 µM,[11],68% (not active)
same,residual activity,[12],106%
same,residual activity,[13],114%
same,residual activity,[14],92%
same,residual activity,[15],103%
same,residual activity,[16],98%
same,residual activity,[17],98%
same,residual activity,[18],103%
same,residual activity,[19],109%
same,residual activity,[20],74%
same,activity at 30 µM,[21],100% (not active)
same,activity at 30 µM,[22],100% (not active)
same,residual activity,[23],91%
same,residual activity,[24],109%
same,residual activity,[25],101%
same,residual activity,[26],94%
same,inhibition,[27],-5.21%
same,inhibition,[28],-4.89%
same,inhibition,[29],9.26%
same,inhibition,[30],12.1%
same,residual activity,[31],96%
same,IC50,[32],0.138 µM (active)
